Numbered stars: 1 amine (or outer) side, 2 acyl side, 3 side chain; on linkers, the order of the positions; unused ones are H or OH. Bridge positions count the residues as written; N and C are the ends. Peptide text beside a SMILES is read from it. * marks the point of attachment. C20 diacid = O=C(O)CCCCCCCCCCCCCCCCCCC(=O)*; γGlu = O=C(O)[C@H](CCC(=O)[*:2])N[*:1]
Key:
[1] = molecular target: T1, human calcitonin receptor (Homo sapiens, UniProt P30988); assay: ASSAY (VII) binding to the human calcitonin receptor (SPA, 125I-Calcitonin); settings: read-out: hCTR bind IC50;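 note: cell membranes (35 ng/µL) combined with SPA beads in 40 µL of pH 7.4 Hepes buffer, 384-well format, signal counted on a TopCounter instrument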
T1 construct: expressed in transfected cells
T1 sequence (P30988 25-474): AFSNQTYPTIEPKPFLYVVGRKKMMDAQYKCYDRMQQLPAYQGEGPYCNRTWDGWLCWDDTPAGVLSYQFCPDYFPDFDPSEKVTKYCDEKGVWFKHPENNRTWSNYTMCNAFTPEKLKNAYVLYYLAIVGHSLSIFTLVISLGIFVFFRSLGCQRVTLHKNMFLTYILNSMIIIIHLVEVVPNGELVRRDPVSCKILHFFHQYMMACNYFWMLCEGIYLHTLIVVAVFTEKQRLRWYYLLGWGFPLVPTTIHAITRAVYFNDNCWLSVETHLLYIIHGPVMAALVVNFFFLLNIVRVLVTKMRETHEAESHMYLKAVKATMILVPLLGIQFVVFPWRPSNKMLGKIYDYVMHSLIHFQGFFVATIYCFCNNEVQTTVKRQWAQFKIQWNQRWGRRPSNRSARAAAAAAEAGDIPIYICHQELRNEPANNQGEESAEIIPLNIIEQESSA

[2] = molecular target: T2, rat amylin receptor (rat calcitonin receptor + rat RAMP 3) (Rattus norvegicus, UniProt P32214+Q9JJ73); assay: ASSAY (VI) binding to the rat amylin receptor; settings: for IC50: binding to rat amylin receptor, read-out: rAmylin-R bind IC50
T2 construct: expressed in transfected cells; host or cells: BHK tk'ts 13 (transient, FuGENE 6), membranes
T2 sequence (P32214 25-479 isoform P32214-2 limits assumed): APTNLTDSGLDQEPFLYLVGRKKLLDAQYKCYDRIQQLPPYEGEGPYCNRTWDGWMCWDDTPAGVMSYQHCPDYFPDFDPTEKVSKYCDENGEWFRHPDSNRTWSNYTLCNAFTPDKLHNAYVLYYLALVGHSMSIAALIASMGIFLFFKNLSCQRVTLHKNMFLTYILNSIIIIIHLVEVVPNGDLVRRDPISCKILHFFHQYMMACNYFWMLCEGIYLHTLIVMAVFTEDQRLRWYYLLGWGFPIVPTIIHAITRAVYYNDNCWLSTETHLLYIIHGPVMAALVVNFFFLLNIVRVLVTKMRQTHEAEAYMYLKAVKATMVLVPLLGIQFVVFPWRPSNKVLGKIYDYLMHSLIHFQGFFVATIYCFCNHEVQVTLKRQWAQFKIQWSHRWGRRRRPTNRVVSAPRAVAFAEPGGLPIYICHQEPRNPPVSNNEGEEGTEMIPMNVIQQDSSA
T2 sequence (Q9JJ73 23-147 partner): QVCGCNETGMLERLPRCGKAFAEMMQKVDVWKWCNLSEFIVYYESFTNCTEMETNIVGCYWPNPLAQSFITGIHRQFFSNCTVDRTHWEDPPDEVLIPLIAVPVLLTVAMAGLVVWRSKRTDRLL
Procedure, shortened: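 This assay measured binding to the rat amylin receptor. BHK tk′ts 13 cells were transiently transfected with the rat calcitonin receptor using FuGENE® 6 (Roche), following the manufacturer's recommendations. About 48 hours after transfection, the cells were harvested and membranes were prepared from them for the binding determination.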

[3] = molecular target: T3, human calcitonin (a) receptor in BHK570 cells (Homo sapiens, UniProt P30988); assay: ASSAY (II)a functional assay, human calcitonin receptor (CRE luciferase); format: cell-based; settings: read-out: hCTR funct. EC50
T3 construct: expressed in transfected cells
T3 sequence (P30988 25-474): T1 sequence (P30988 25-474)
Description: 1. Luciferase Assay Outline
Activation of calcitonin and amylin (coexpression of calcitonin receptor and receptor activity modifying proteins (RAMP)) receptors lead to increased intracellular concentrations of cAMP. Consequently, transcription is activated by promoters containing multiple copies of the cAMP response element (CRE). It is thus possible to measure amylin activity by the use of a CRE luciferase reporter gene introduced into BHK cells also expressing calcitonin or amylin receptors.
2. Construction of Calcitonin (a)- and Amylin 3(a)-Receptor/CRE-Luc Cell Line.
The cell line was further transfected with RAMP-3, using standard methods. This turns the calcitonin receptor into an amylin 3(a) receptor. Methotrexate, Neomycin, and Hygromycin are selection markers for luciferase, the calcitonin receptor, and RAMP-3, respectively.
To perform activity assays, BHK calcitonin (a) receptor- or amylin 3(a)-receptor/CRE-luc cells were seeded in white 96 well culture plates at a density of about 20.000 cells/well. […] After incubation overnight at 37° C. and 5% CO2, the growth medium was replaced by 50 μl/well assay medium (DMEM (without phenol red), Glutamax™, 10% FBS, and 10 mM Hepes, pH 7.4). Further, 50 μl/well of standard or sample in assay buffer were added. After 3 hours incubation at 37° C. and 5% CO2, the assay medium with standard or sample were removed and replaced by 100 μl/well PBS. Further, 100 μl/well LucLite™ was added. The plates were sealed and incubated at room temperature for 30 minutes. Finally, luminescence was measured on a TopCounter (Packard) in SPC (single photon counting) mode.

rat calcitonin receptor = molecular target: T4, rat calcitonin receptor (Rattus norvegicus, UniProt P32214); assay: ASSAY (VIII) binding to the rat calcitonin receptor; settings: Table 7, read-out: rCTR bind IC50
T4 construct: expressed in transfected cells; host or cells: BHK tk'ts 13 (transient, FuGENE 6), membranes
T4 sequence (P32214 25-479 isoform P32214-2 limits assumed): T2 sequence (P32214 25-479 isoform P32214-2 limits assumed)
Procedure, shortened: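 Membranes were prepared from BHK tk′ts 13 cells transiently transfected with rat calcitonin receptor. Cells were grown in DMEM with 10% FBS and harvested approximately 48 hours after transfection.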

[4] = molecular target: T5, human amylin 3(a) receptor (human calcitonin receptor + RAMP-3) in BHK570 cells (Homo sapiens, UniProt O60896+P30988); assay: ASSAY (II)a functional assay, human amylin receptor (CRE luciferase); format: cell-based; settings: for EC50: human amylin receptor functional potency, assay (II), read-out: hAmylin-R funct. EC50
T5 construct: expressed in transfected cells
Procedure, shortened: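 Ligand exposure 3 h at 37 °C, 5% CO2 in DMEM with 10% FBS, 10 mM Hepes pH 7.4. cAMP-driven luciferase read by luminescence after 30 min LucLite at room temperature.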

[5] = molecular target: T6, human amylin receptor (membranes from Amylin 3(a)/CRE-luc cells) (Homo sapiens, UniProt O60896+P30988); assay: ASSAY (V) binding to the human amylin receptor (SPA, 125I-rat amylin); settings: for IC50: Table 4, read-out: hAmylin-R bind IC50;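 for all read-outs here: competition binding of cell membranes (35 ng/µL) mixed with SPA beads in 384-well plates at 40 µL total volume, read by scintillation counting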
T6 construct: expressed in transfected cells
T6 sequence (P30988 25-474): T1 sequence (P30988 25-474)
T6 sequence (O60896 24-148 partner): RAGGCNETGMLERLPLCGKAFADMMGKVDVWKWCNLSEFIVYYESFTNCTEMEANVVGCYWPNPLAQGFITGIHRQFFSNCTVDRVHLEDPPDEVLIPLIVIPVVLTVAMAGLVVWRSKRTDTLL

[6] = Table 7, rat binding selectivity, rCTR IC50 / rAmylin-R IC50
[7] = Table 7a (preferred compounds), rat binding selectivity, rCTR IC50 / rAmylin-R IC50
[8] = ratio of rCTR bind IC50 to rAmylin-R bind IC50
[9] = hCTR funct. EC50 over hAmylin-R funct. EC50
[10] = human functional selectivity: hCTR funct. EC50 / hAmylin-R funct. EC50
[11] = Table 5, selectivity, hCTR bind IC50 / hAmylin-R bind IC50
[12] = Table 5a, selectivity, hCTR bind IC50 / hAmylin-R bind IC50
[13] = Table 5b, selectivity, hCTR bind IC50 / hAmylin-R bind IC50
[14] = Table 7, human binding selectivity, included for comparison
[15] = Table 7a (preferred compounds), human binding selectivity, included for comparison
[16] = ratio of human calcitonin receptor binding IC50 to human amylin receptor binding IC50

| IC50 [1] [nM] | IC50 ([2]; Table 7) [nM] | Ratio rCT/rAmylin binding [2, 6] | Ratio rCT/rAmylin binding [2, 7] | Ratio rCT/rAmylin binding [2, 8] | EC50 [3] [nM] | IC50 (rat calcitonin receptor) [nM] | Ratio hCT/hAmylin funct. [4, 9] | EC50 [4] [nM] | Ratio hCT/hAmylin funct. [4, 10] | IC50 [5] [nM] | Ratio hCT/hAmylin binding [5, 11] | Ratio hCT/hAmylin binding [5, 12] | Ratio hCT/hAmylin binding [5, 13] | Ratio hCT/hAmylin binding ([5]; Table 5c, selectivity, hCTR bind IC50 / hAmylin-R bind IC50) | Ratio hCT/hAmylin binding [5, 14] | Ratio hCT/hAmylin binding [5, 15] | Ratio hCT/hAmylin binding [5, 16] | Structure (SMILES) |
| --- | --- | --- | --- | --- | --- | --- | --- | --- | --- | --- | --- | --- | --- | --- | --- | --- | --- | --- |
| 19.9 | 2.37 | 21.7 | 21.7 | 21.7 | 0.729 | 51.6 | 5.7 | 0.128 | 5.7 | 0.996 | 20.0 | 20.0 | 20.0 | 20.0 | 20.0 | 20.0 | 20.0 | CC[C@H](C)[C@H](NC(=O)[C@@H]1CCCN1C(=O)CNC(=O)[C@H](Cc1ccccc1)NC(=O)[C@H](CC(N)=O)NC(=O)[C@@H]1CCCN1C(=O)[C@H](CO)NC(=O)[C@H](CO)NC(=O)[C@H](Cc1c[nH]cn1)NC(=O)[C@H](CCCNC(=N)N)NC(=O)[C@H](CC(C)C)NC(=O)[C@H](Cc1ccccc1)NC(=O)[C@H](CCC(=O)O)NC(=O)[C@H](C)NC(=O)[C@H](CC(C)C)NC(=O)[C@H](CCCNC(=N)N)NC(=O)[C@H](CCC(N)=O)NC(=O)[C@@H](NC(=O)[C@H](C)NC(=O)[C@@H]1CSSC[C@H](NC(=O)[C@H](CCCCN)NC(=O)CC[C@H](NC(=O)CCCCCCCCCCCCCCCCCCC(=O)O)C(=O)O)C(=O)N[C@@H](CC(N)=O)C(=O)N[C@@H]([C@@H](C)O)C(=O)N[C@@H](C)C(=O)N[C@@H]([C@@H](C)O)C(=O)N1)[C@@H](C)O)C(=O)N[C@@H](CC(C)C)C(=O)N1CCC[C@H]1C(=O)N1CCC[C@H]1C(=O)N[C@H](C(=O)N[C@@H](CC(N)=O)C(=O)N[C@H](C(=O)NCC(=O)N[C@@H](CO)C(=O)N[C@@H](CC(N)=O)C(=O)N[C@H](C(=O)N[C@@H](Cc1ccc(O)cc1)C(N)=O)[C@@H](C)O)C(C)C)[C@@H](C)O [Example 6] ({C20 diacid-γGlu}-KCNTATCATQRLAEFLRHSSPNFGPILPPTNVGSNTY-NH2; disulfide 2-7) |
| 11.1 | 1.12 | 42.0 | 42.0 | 42.0 | 1.16 | 47.2 | 4.5 | 0.255 | 4.5 | 0.674 | 16.5 | 16.5 | 16.5 | – | 16.5 | 16.5 | 16.5 | CC(C)C[C@H](NC(=O)[C@H](CCCNC(=N)N)NC(=O)[C@H](CCC(N)=O)NC(=O)[C@@H](NC(=O)[C@H](C)NC(=O)[C@@H]1CSSC[C@H](NC(=O)[C@H](CCCCN)NC(=O)CC[C@H](NC(=O)CCCCCCCCCCCCCCCCCCC(=O)O)C(=O)O)C(=O)N[C@@H](CC(N)=O)C(=O)N[C@@H]([C@@H](C)O)C(=O)N[C@@H](C)C(=O)N[C@@H]([C@@H](C)O)C(=O)N1)[C@@H](C)O)C(=O)N[C@@H](C)C(=O)N[C@@H](CCC(=O)O)C(=O)N[C@@H](Cc1ccccc1)C(=O)N[C@@H](CC(C)C)C(=O)N[C@@H](CCCNC(=N)N)C(=O)N[C@@H](Cc1c[nH]cn1)C(=O)N[C@@H](CO)C(=O)N[C@@H](CO)C(=O)N1CCC[C@H]1C(=O)N[C@@H](CC(N)=O)C(=O)N[C@@H](Cc1ccccc1)C(=O)NCC(=O)N[C@@H](C)C(=O)N1CCC[C@H]1C(=O)N[C@@H](CC(C)C)C(=O)N[C@@H](CO)C(=O)N[C@@H](CO)C(=O)N[C@H](C(=O)N[C@@H](CC(N)=O)C(=O)N[C@H](C(=O)NCC(=O)N[C@@H](CO)C(=O)N[C@@H](CC(N)=O)C(=O)N[C@H](C(=O)N[C@@H](Cc1ccc(O)cc1)C(N)=O)[C@@H](C)O)C(C)C)[C@@H](C)O [Example 7] ({C20 diacid-γGlu}-KCNTATCATQRLAEFLRHSSPNFGAPLSSTNVGSNTY-NH2; disulfide 2-7) |

From patent US9023789B2, “Amylin analogs and pharmaceutical compositions thereof” (Novo Nordisk A/S, priority 2012, dated 2015)
